Results taken from patent USRE47512E1, “Imidazole and imidazolium resins and methods for preparing curable imidazolium antimicrobial resins” (DENTSPLY SIRONA INC., priority 2011, dated 2019).

Assay: Solubility of resins @ 37° C.
Format: physicochemical

Substance	Solubility @ 37° C. in water (Table I)	Solubility @ 37° C. in water/ethanol (50:50, w/w %) (Table I)	Solubility @ 37° C. in EtOH (Table II, EtOH)	Solubility @ 37° C. in water/ethanol (50:50, w/w %) (Table II)
HEMA-based Monoimidazole-dimethacrylate Resin [Example 3a]	partially	soluble	–	–
Isosorbide-based Bisimidazole-dimethacrylate Resin [Example 1]	partially	soluble	–	–
Isosorbide-based Bisimidazoliumbromide-dimethacrylate Resin [Example 5]	–	–	soluble	soluble
TCDC-based Bisimidazole-dimethacrylate Resin [Example 2]	partially	soluble	–	–
